According to patent US20150132328A1 (priority 2011, published 2015):
Read-outs that look alike come from different tables or passages of the source.

Assays:
[1] = tested on: antibodies vs. LR.4 cells
Description: This was performed by flow cytometry. LR.4 cells were washed and incubated in serum dilutions obtained from mice, using as second antibody an antibody vs. mouse conjugated to fluoresce.

[2] = tested on: rats with rheumatoid arthritis
Description: This produces that in the third week appears edema of the cephalic and caudal extremities, which can be measured with a vernier. Inflammation is due to the presence of the own autoimmune response against […] of the rat.

[3] = tested on: rats with acute hepatitis induced with CCI4;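 note: endpoints determined in blood and liver tissue collected when the rats were sacrificed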
[4] = tested on: lymphoma LR.4
[5] = Acute Hepatitis + IMMP, time of CCI4 24
[6] = Acute Hepatitis + IMMP, time of CCI4 48
[7] = Acute Hepatitis + IMMP, time of CCI4 72

Question: Which results are given for Peptide LEDGPKFL + Zinc [IMMP]?
Answer: % of LR.4 cells stained with the serum antibody ([1]; IMMP alone, no tumor, serum dilution 1:64): 0%; % of LR.4 cells stained with the serum antibody ([1]; LR.4 + IMMP, serum dilution 0): 100%; % of LR.4 cells stained with the serum antibody ([1]; LR.4 + IMMP, serum dilution 1:2): 100%; % of LR.4 cells stained with the serum antibody ([1]; LR.4 + IMMP, serum dilution 1:4): 100%; % of LR.4 cells stained with the serum antibody ([1]; LR.4 + IMMP, serum dilution 1:8): 100%; % of LR.4 cells stained with the serum antibody ([1]; LR.4 + IMMP, serum dilution 1:16): 83%; % of LR.4 cells stained with the serum antibody ([1]; LR.4 + IMMP, serum dilution 1:32): 40%; % of LR.4 cells stained with the serum antibody ([1]; LR.4 + IMMP, serum dilution 1:64): 15%; Antibodies vs tumor relative to untreated group ([1]; mouse, in vivo): four times more antibodies; Number of rats showing Inflammation 0% ([2]; AR + treatment): 3; Number of rats showing Inflammation 50% ([2]; AR + treatment): 3; Number of rats showing Inflammation 100% of palmar and plantar pad ([2]; AR + treatment): 6; Number of rats showing Inflammation 0% ([2]; IMMP alone, no arthritis): 0; Number of rats showing Inflammation 50% ([2]; IMMP alone, no arthritis): 0; Number of rats showing Inflammation 100% of palmar and plantar pad ([2]; IMMP alone, no arthritis): 0; Animals with inflammation reduced at 50% ([2]; rat, in vivo): 25%; Animals with inflammation reduced at 100% ([2]; rat, in vivo): 25%; Serum ALT [3, 5]: 351.0 ± 10.4 UI/L; Serum AST [3, 5]: 493.6 ± 30.3 UI/L; Serum PA (alkaline phosphatase) [3, 5]: 1139.0 ± 86.8 UI/L; Serum ALT [3, 6]: 275.54 ± 22.3 UI/L; Serum AST [3, 6]: 377.0 ± 17.7 UI/L; Serum PA (alkaline phosphatase) [3, 6]: 1287.5 ± 83.6 UI/L; Serum ALT [3, 7]: 233.0 ± 20.8 UI/L; Serum AST [3, 7]: 230.2 ± 15.4 UI/L; Serum PA (alkaline phosphatase) [3, 7]: 1306.2 ± 90.7 UI/L; Hepatic glutathione ([3]; CCI4 + IMMP, 24 hours): 13.3 ± 3.3 ng/mg of tissue; Relative weight of the liver (organ weight / weight of the animal) ([3]; CCI4 + IMMP, 24 hours after CCI4): 8.0 ± 0.9 ^ relative units; Hepatic glutathione ([3]; CCI4 + IMMP, 48 hours): 14.2 ± 2.8 ng/mg of tissue; Relative weight of the liver (organ weight / weight of the animal) ([3]; CCI4 + IMMP, 48 hours after CCI4): 6.8 ± 0.7 relative units; Hepatic glutathione ([3]; CCI4 + IMMP, 72 hours): 3.7 ± 1.6 ng/mg of tissue; Relative weight of the liver (organ weight / weight of the animal) ([3]; CCI4 + IMMP, 72 hours after CCI4): 5.7 ± 0.5 relative units; Relative weight of the liver (organ weight / weight of the animal) ([3]; IMMP alone, no CCI4, 24 hours, 100 ng/kg i.p. x3): 5.4 ± 0.5 relative units; Relative weight of the liver (organ weight / weight of the animal) ([3]; IMMP alone, no CCI4, 48 hours, 100 ng/kg i.p. x3): 5.0 ± 0.4 relative units; Relative weight of the liver (organ weight / weight of the animal) ([3]; IMMP alone, no CCI4, 72 hours, 100 ng/kg i.p. x3): 4.9 ± 0.2 relative units; Hepatic glutathione ([3]; IMMP alone, 24 hours): 3.1 ± 1.0 ng/mg of tissue; Hepatic glutathione ([3]; IMMP alone, 48 hours): 3.5 ± 0.3 ng/mg of tissue; Hepatic glutathione ([3]; IMMP alone, 72 hours): 5.1 ± 0.6 ng/mg of tissue; Serum ALT ([3]; IMMP alone, time 24): 64.0 ± 22.4 UI/L; Serum AST ([3]; IMMP alone, time 24): 72.4 ± 4.1 UI/L; Serum PA (alkaline phosphatase) ([3]; IMMP alone, time 24): 525.0 ± 160 UI/L; Serum ALT ([3]; IMMP alone, time 48): 73.1 ± 6.1 UI/L; Serum AST ([3]; IMMP alone, time 48): 72.5 ± 3.9 UI/L; Serum PA (alkaline phosphatase) ([3]; IMMP alone, time 48): 804.5 ± 39.5 UI/L; Serum ALT ([3]; IMMP alone, time 72): 71.4 ± 8.4 UI/L; Serum AST ([3]; IMMP alone, time 72): 71.6 ± 6.9 UI/L; Serum PA (alkaline phosphatase) ([3]; IMMP alone, time 72): 604.0 ± 26.9 UI/L; Reduction of tumor growth at long term ([4]; 10 doses for two weeks, from the fourth week): about 50%; Body weight (control percent) ([4]; IMMP alone, no tumor, week 0): 100 ± 3%; Body weight (control percent) ([4]; IMMP alone, no tumor, week 8): 101 ± 3%; Body weight (control percent) ([4]; IMMP alone, no tumor, week 12): 99 ± 4%; Body weight (control percent) ([4]; IMMP alone, no tumor, week 16): 101 ± 4%; Body weight (control percent) ([4]; IMMP alone, no tumor, week 20): 102 ± 3%; Body weight (control percent) ([4]; IMMP alone, no tumor, week 24): 100 ± 3%; Body weight (control percent) ([4]; IMMP alone, no tumor, week 28): 100 ± 2%; Body weight (control percent) ([4]; IMMP alone, no tumor, week 32): 100 ± 5%; Body weight (control percent) ([4]; IMMP alone, no tumor, week ±4): 102 ± 4%; Body weight (control percent) ([4]; LR.4 + IMMP, week 0, 200 ng/Kg i.p., ten doses): 100 ± 2%; Body weight (control percent) ([4]; LR.4 + IMMP, week 8): 106 ± 3 %; Body weight (control percent) ([4]; LR.4 + IMMP, week 12): 118 ± 7 %; Body weight (control percent) ([4]; LR.4 + IMMP, week 16): 120 ± 9 %; Body weight (control percent) ([4]; LR.4 + IMMP, week 20): 119 ± 9 %; Body weight (control percent) ([4]; LR.4 + IMMP, week 24): 120 ± 8 %; Body weight (control percent) ([4]; LR.4 + IMMP, week 28): 119 ± 11 %; Body weight (control percent) ([4]; LR.4 + IMMP, week 32): 120 ± 13 %; Body weight (control percent) ([4]; LR.4 + IMMP, week ±4): 115 ± 5 %; Body weight relative to control ([4]; tumor + IMMP, thirty day (untreated 25% higher)): almost equal to that of the control
